Reference: US9085584B2, “Substituted pyrido[3,2-E][1,2,4]-triazolo[4,3-A]pyrazines for the treatment of central nervous system disorders” (Boehringer Ingelheim International GmbH, priority 2012, dated 2015)

Experiment: Metabolic stability in pooled liver microsomes
Format: in vitro ADME, human
Conditions: human liver microsomes, 1 μM test compound, 37° C.
Method: The metabolic stability of the compounds according to the invention has been investigated as follows:
The metabolic degradation of the test compound was assayed at 37° C. with pooled liver microsomes from various species. The final incubation volume of 100 μl per time point contains TRIS buffer pH 7.6 at room temperature (0.1 M), magnesium chloride (5 mM), microsomal protein (1 mg/mL for human and dog, 0.5 mg/mL for other species) and the test compound at a final concentration of 1 μM. Following a short preincubation period at 37° C., the reactions were initiated by addition of betanicotinamide adenine dinucleotide phosphate, reduced form (NADPH, 1 mM), and terminated by transferring an aliquot into solvent after different time points. […] The half-life was determined by the slope of the semi-logarithmic plot of the concentration-time profile.

Compound	Half-life - t½
Cc1nc2cccnc2n2c(-c3cc(OCC(C)(C)O)ccc3Cl)nnc12 [Example 44]	130 min
Cc1ccc2nc(C)c3nnc(-c4cc(OCC(C)(C)O)ccc4Cl)n3c2n1 [Example 46]	130 min
Cc1nc2cccnc2n2c(-c3cc(OC4CCOCC4)ccc3Cl)nnc12 [Example 20]	130 min
Cc1nc2ccc(C3CC3)nc2n2c(-c3cc(OC4COCC4O)ccc3Cl)nnc12 (racemic) [Example 58a]	130 min
Cc1ccc2nc(C)c3nnc(-c4cc(O[C@@H]5CCOC5)ccc4Cl)n3c2n1 [Example 42]	130 min
Cc1ccc2nc(C)c3nnc(-c4cc(OC[C@@H](C)O)ccc4Cl)n3c2n1 [Example 35]	130 min
Cc1nc2cccnc2n2c(-c3cc(O)ccc3Cl)nnc12 [Example 1]	130 min
Cc1nc2cccnc2n2c(-c3cc(OC4COCC4O)ccc3Cl)nnc12 (single isomer, unassigned) [Example 55a]	130 min
Cc1nc2ccc(C3CC3)nc2n2c(-c3cc(OCC(C)(C)O)ccc3F)nnc12 [Example 47]	130 min
Cc1ccc(OCC2(O)CCC2)cc1-c1nnc2c(C)nc3cccnc3n12 [Example 50]	130 min
Cc1ccc(OCC(C)(C)O)cc1-c1nnc2c(C)nc3ccc(C(C)C)nc3n12 [Example 51]	130 min
Cc1nc2ccc(C3CC3)nc2n2c(-c3cc(OC4COCC4O)ccc3Cl)nnc12 (single isomer, unassigned) [Example 56b]	62 min
Cc1nc2ccc(C(C)C)nc2n2c(-c3cc(OCC(C)(C)O)ccc3F)nnc12 [Example 52]	130 min
Cc1nc2cccnc2n2c(-c3cc(OC4CCC(F)(F)CC4)ccc3Cl)nnc12 [Example 21]	130 min
Cc1ccc2nc(C)c3nnc(-c4cc(OC5CCC(F)(F)CC5)ccc4Cl)n3c2n1 [Example 30]	130 min
Cc1ccc(OC2COCC2O)cc1-c1nnc2c(C)nc3ccc(C4CC4)nc3n12 (single isomer, unassigned) [Example 57a]	130 min
Cc1ccc(OCC(C)(C)O)cc1-c1nnc2c(C)nc3ccc(C4CC4)nc3n12 [Example 48]	130 min
Cc1nc2ccc(C3CC3)nc2n2c(-c3cc(OCC(C)(C)O)ccc3Cl)nnc12 [Example 45]	130 min
Cc1ccc(OC2COCC2O)cc1-c1nnc2c(C)nc3ccc(C4CC4)nc3n12 (racemic) [Example 57]	130 min
Cc1nc2cccnc2n2c(-c3cc(OC4COCCC4O)ccc3Cl)nnc12 (single isomer, unassigned) [Example 58]	130 min
Cc1ccc2nc(C)c3nnc(-c4cc(OC5CCOCC5)ccc4Cl)n3c2n1 [Example 32]	130 min
Cc1ccc2nc(C)c3nnc(-c4cc(O[C@H]5CCOC5)ccc4Cl)n3c2n1 [Example 43]	130 min
Cc1nc2cccnc2n2c(-c3cc(OC[C@H](C)O)ccc3Cl)nnc12 [Example 18]	130 min
Cc1nc2cccnc2n2c(-c3cc(OC[C@@H](C)O)ccc3Cl)nnc12 [Example 17]	130 min
Cc1nc2cccnc2n2c(-c3cc(OCCCO)ccc3Cl)nnc12 [Example 13]	130 min
Cc1nc2cc(C(C)C)cnc2n2c(-c3cc(OCC(C)(C)O)ccc3Cl)nnc12 [Example 54]	130 min
Cc1nc2cccnc2n2c(-c3cc(OCC4(O)CCC4)ccc3Cl)nnc12 [Example 49]	130 min
Cc1ccc2nc(C)c3nnc(-c4cc(OC[C@H](C)O)ccc4Cl)n3c2n1 [Example 34]	130 min

Other lines, results leading:

Half-life - t½	Compound
130 min	Cc1ccc(C2(O)CCOCC2O)cc1-c1nnc2c(C)nc3ccc(C4CC4)nc3n12 (single isomer, unassigned) [Example 104a]
130 min	Cc1ccc2nc(C)c3nnc(-c4cc(C5(O)CCC5)ccc4Cl)n3c2n1 [Example 89]
130 min	Cc1nc2ccc(C3CC3)nc2n2c(-c3cc(OC4COCC4O)ccc3Cl)nnc12 (single isomer, unassigned) [Example 58c]
130 min	Cc1ccc2nc(C)c3nnc(-c4cc(C(C)(C)O)ccc4Cl)n3c2n1 [Example 71]
130 min	Cc1nc2cccnc2n2c(-c3cc(C4(O)CCC4)ccc3Cl)nnc12 [Example 87]
130 min	Cc1nc2cccnc2n2c(-c3cc(C(C)(C)O)ccc3Cl)nnc12 [Example 70]
130 min	Cc1nc2cccnc2n2c(-c3cc(CCC(C)(C)O)ccc3Cl)nnc12 [Example 64]
130 min	Cc1nc2cccnc2n2c(-c3cc(CC(C)(C)O)ccc3Cl)nnc12 [Example 82]
130 min	CCC(O)c1ccc(Cl)c(-c2nnc3c(C)nc4ccc(C)nc4n23)c1 (stereo not drawn) [Example 62]
130 min	Cc1ccc(CCC(C)(C)O)cc1-c1nnc2c(C)nc3cccnc3n12 [Example 67]
130 min	Cc1nc2ccc(C3(C)CC3)nc2n2c(-c3cc(C(C)(C)O)ccc3F)nnc12 [Example 72]
49 min	Cc1ccc2nc(C)c3nnc(-c4cc(C(O)C(C)C)ccc4Cl)n3c2n1 (stereo not drawn) [Example 59]
130 min	Cc1nc2cccnc2n2c(-c3cc(C4(O)CCOC4)ccc3Cl)nnc12 (single isomer, unassigned) [Example 99]
130 min	Cc1ccc2nc(C)c3nnc(-c4cc(C5(O)CCC5)ccc4C)n3c2n1 [Example 102]
130 min	Cc1nc2ccc(C3CC3)nc2n2c(-c3cc(C(C)(C)O)ccc3F)nnc12 [Example 76]
130 min	Cc1ccc2nc(C)c3nnc(-c4cc(C(C)O)ccc4Cl)n3c2n1 (stereo not drawn) [Example 63]
130 min	Cc1nc2cccnc2n2c(-c3cc(C4(O)CCOCC4)ccc3Cl)nnc12 [Example 93]
130 min	Cc1nc2ccc(C3CC3)nc2n2c(-c3cc(C(C)(C)O)ccc3Cl)nnc12 [Example 85]
130 min	Cc1ccc(C2(O)CCOCC2O)cc1-c1nnc2c(C)nc3ccc(C4CC4)nc3n12 (racemic) [Example 104]
130 min	Cc1nc2ccc(C3CC3)nc2n2c(-c3cc(OC4COCC4O)ccc3Cl)nnc12 (single isomer, unassigned) [Example 58b]

Same assay, conditions: human, pooled liver microsomes, pH 7.6, human liver microsomes, 1 μM test compound, 37° C.; read-out: Half-life - t½

Compound	half-life at 1 μM
Cc1nc2ccc(C3CC3)nc2n2c(-c3cc(OC4COCC4O)ccc3Cl)nnc12 (single isomer, unassigned) [Example 56a]	110 min
Cc1ccc(O)cc1-c1nnc2c(C)nc3ccc(C4CC4)nc3n12 [Example 6]	66 min
Cc1nc2ccc(C3CC3)nc2n2c(-c3cc(O)ccc3Cl)nnc12 [Example 9]	41 min
Cc1nc2ccc(C3CC3)nc2n2c(-c3cc(OC4COCC4O)ccc3Cl)nnc12 (racemic) [Example 56]	120 min
Cc1nc2ccc(C3CC3)nc2n2c(-c3cc(OC4CCOCC4)ccc3Cl)nnc12 [Example 32a]	36 min
Cc1nc2ccc(C(F)(F)F)nc2n2c(-c3cc(O)ccc3Cl)nnc12 [Example 12]	63 min
Cc1ccc(OC2COCC2O)cc1-c1nnc2c(C)nc3ccc(C4CC4)nc3n12 (single isomer, unassigned) [Example 57b]	93 min
Cc1nc2ccc(C3CC3)nc2n2c(-c3cc(O)ccc3F)nnc12 [Example 5]	43 min

More lines, now with the values ahead:

half-life at 1 μM	Compound
38 min	Cc1nc2ccc(C3CC3)nc2n2c(-c3cc(C4(O)CCOCC4)ccc3Cl)nnc12 [Example 94]
53 min	Cc1nc2ccc(C3CC3)nc2n2c(-c3cc(C4(O)CCC4)ccc3Cl)nnc12 [Example 88]
110 min	Cc1nc2ccc(C(F)(F)F)nc2n2c(-c3cc(C4(O)CCOCC4)ccc3Cl)nnc12 [Example 96]
90 min	Cc1nc2ccc(C(C)C)nc2n2c(-c3cc(C(C)(C)O)ccc3Cl)nnc12 [Example 77]
57 min	Cc1nc2ccc(C3CC3)nc2n2c(-c3cc(CCC(C)(C)O)ccc3F)nnc12 [Example 66]
65 min	CCCC(O)c1ccc(Cl)c(-c2nnc3c(C)nc4ccc(C)nc4n23)c1 (stereo not drawn) [Example 61]
79 min	Cc1ccc(C(C)(C)O)cc1-c1nnc2c(C)nc3ccc(C(C)C)nc3n12 [Example 78]
26 min	Cc1ccc(CC(C)(C)O)cc1-c1nnc2c(C)nc3ccc(C4CC4)nc3n12 [Example 81]
100 min	Cc1nc2ccc(C3CC3)nc2n2c(-c3cc(CC(C)(C)O)ccc3Cl)nnc12 [Example 83]
28 min	Cc1nc2ccc(C(C)C)nc2n2c(-c3cc(C4(O)CCC4)ccc3Cl)nnc12 [Example 91]
83 min	Cc1nc2ccc(C3CC3)nc2n2c(-c3cc(CC(C)(C)O)ccc3F)nnc12 [Example 80]
39 min	Cc1nc2ccc(C3CC3)nc2n2c(-c3cc(C4(O)CCC4)ccc3F)nnc12 [Example 84]
22 min	Cc1nc2ccc(C3CC3)nc2n2c(-c3cc(C(C)(C)CO)ccc3F)nnc12 [Example 101]
23 min	Cc1nc2ccc(C(C)C)nc2n2c(-c3cc(C4(O)CCC4)ccc3F)nnc12 [Example 92]
53 min	Cc1nc2ccc(C3CC3)nc2n2c(-c3cc(CCC(C)(C)O)ccc3Cl)nnc12 [Example 69]
39 min	Cc1ccc(CCC(C)(C)O)cc1-c1nnc2c(C)nc3ccc(C4CC4)nc3n12 [Example 68]
